Source: US20260144788A1, “COMPOUND FOR SHP2 PROTEIN DEGRADATION AND MEDICAL USES THEREOF” (UBIX THERAPEUTICS, INC., priority 2022, published 2026)

Target: T1, SHP2 protein (Homo sapiens, UniProt Q06124)
T1 sequence (Q06124 1-593): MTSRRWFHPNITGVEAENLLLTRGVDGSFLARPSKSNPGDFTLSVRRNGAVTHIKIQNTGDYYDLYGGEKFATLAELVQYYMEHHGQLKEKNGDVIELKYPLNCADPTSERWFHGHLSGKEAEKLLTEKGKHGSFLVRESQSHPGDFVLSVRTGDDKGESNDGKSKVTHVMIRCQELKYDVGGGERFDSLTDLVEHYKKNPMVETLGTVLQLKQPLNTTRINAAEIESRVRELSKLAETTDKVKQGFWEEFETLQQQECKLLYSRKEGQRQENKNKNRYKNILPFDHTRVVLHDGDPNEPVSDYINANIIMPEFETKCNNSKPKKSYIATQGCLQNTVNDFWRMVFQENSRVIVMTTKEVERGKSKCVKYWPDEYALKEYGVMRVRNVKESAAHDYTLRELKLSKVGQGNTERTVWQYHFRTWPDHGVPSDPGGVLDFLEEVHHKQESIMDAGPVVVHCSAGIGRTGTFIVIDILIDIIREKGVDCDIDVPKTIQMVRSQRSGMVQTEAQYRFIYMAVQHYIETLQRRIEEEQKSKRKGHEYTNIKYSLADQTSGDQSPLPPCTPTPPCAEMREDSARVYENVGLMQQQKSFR
Assay: Measurement of SHP2 protein degradation in NCI-H358 cells (western blotting)
Format: cell-based
Design: endogenous in cells; host or cells: NCI-H358
Conditions: harvested after 24 hours
Method in brief: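 H358 cells in RPMI1640/25 mM HEPES/10% FBS, cultured 24 h, then exposed to compound at final 0.001, 0.01 and 0.1 μM for 24 h against a DMSO control. Lysates were normalised for protein by BCA and probed by western blot for SHP2, with GAPDH as loading control.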

SMILES | SHP2% degradation (0.01 μM) [%] | SHP2% degradation (0.1 μM) [%]
CC(=O)N[C@H](C(=O)N1C[C@H](O)C[C@H]1C(=O)NCc1ccc(-c2scnc2C)cc1O[C@H]1CC[C@H](C(=O)N2CCC(Nc3nccc(Sc4cnc(N5CCC6(CC5)CO[C@@H](C)[C@H]6N)cn4)c3Cl)CC2)CC1)C(C)(C)C [Example 43, (2S,4R)-1-((S)-2-acetamido-3,3-dimethylbutanoyl)-N-(2-(((1R,4S)-4-(4-((4-((5-((3S,4S)-4-amino-3-methyl-2-oxa-8-azaspiro[4.5]decan-8-yl)pyrazin-2-yl)thio)-3-chloropyridin-2-yl)amino)piperidine-1-carbonyl)cyclohexyl)oxy)-4-(4-methylthiazol-5-yl)benzyl)-4-hydroxypyrrolidine-2-carboxamide] | 94.3 | 95.9
CC(=O)N[C@H](C(=O)N1C[C@H](O)C[C@H]1C(=O)NCc1ccc(-c2scnc2C)cc1O[C@H]1CC[C@H](C(=O)N2CCC(N3CCOc4c(Sc5cnc(N6CCC7(CC6)CO[C@@H](C)[C@H]7N)cn5)cccc43)CC2)CC1)C(C)(C)C [Example 36, (2S,4R)-1-((S)-2-acetamido-3,3-dimethylbutanoyl)-N-(2-(((1R,4S)-4-(4-(8-((5-((3S,4S)-4-amino-3-methyl-2-oxa-8-azaspiro[4.5]decan-8-yl)pyrazin-2-yl)thio)-2H-benzo[b][1,4]oxazin-4(3H)-yl)piperidine-1-carbonyl)cyclohexyl)oxy)-4-(4-methylthiazol-5-yl)benzyl)-4-hydroxypyrrolidine-2-carboxamide] | 91.0 | 100.0
CC(=O)N[C@H](C(=O)N1C[C@H](O)C[C@H]1C(=O)N[C@@H](C)c1ccc(-c2scnc2C)cc1O[C@H]1CC[C@H](C(=O)N2CC(Nc3cccc(Sc4cnc(N5CCC(C)(CN)CC5)cn4)c3Cl)C2)CC1)C(C)(C)C [Example 48, (2S,4R)-1-((S)-2-acetamido-3,3-dimethylbutanoyl)-N—((S)-1-(2-(((1R,4S)-4-(3-((3-((5-(4-(aminomethyl)-4-methylpiperidin-1-yl)pyrazin-2-yl)thio)-2-chlorophenyl)amino)azetidine-1-carbonyl)cyclohexyl)oxy)-4-(4-methylthiazol-5-yl)phenyl)ethyl)-4-hydroxypyrrolidine-2-carboxamide] | 88.8 | 98.3
CC(=O)N[C@H](C(=O)N1C[C@H](O)C[C@H]1C(=O)NCc1ccc(-c2scnc2C)cc1O[C@H]1CC[C@H](C(=O)N2CC(Nc3nccc(Sc4cnc(N5CCC(C)(N)CC5)cn4)c3Cl)C2)CC1)C(C)(C)C [Example 39, (2S,4R)-1-((S)-2-acetamido-3,3-dimethylbutanoyl)-N-(2-(((1R,4S)-4-(3-((4-((5-(4-amino-4-methylpiperidin-1-yl)pyrazin-2-yl)thio)-3-chloropyridin-2-yl)amino)azetidine-1-carbonyl)cyclohexyl)oxy)-4-(4-methylthiazol-5-yl)benzyl)-4-hydroxypyrrolidine-2-carboxamide] | 83.6 | 98.1
CC(=O)N[C@H](C(=O)N1C[C@H](O)C[C@H]1C(=O)NCc1ccc(-c2scnc2C)cc1O[C@H]1CC[C@H](C(=O)N2CCC(N3CCc4c(Sc5cnc(N6CCC7(CC6)CO[C@@H](C)[C@H]7N)cn5)cccc43)CC2)CC1)C(C)(C)C [Example 33, (2S,4R)-1-((S)-2-acetamido-3,3-dimethylbutanoyl)-N-(2-(((1R,4S)-4-(4-(4-((5-((3S,4S)-4-amino-3-methyl-2-oxa-8-azaspiro[4.5]decan-8-yl)pyrazin-2-yl)thio)indolin-1-yl)piperidine-1-carbonyl)cyclohexyl)oxy)-4-(4-methylthiazol-5-yl)benzyl)-4-hydroxypyrrolidine-2-carboxamide] | 96.6 | 99.1
Cc1ncsc1-c1ccc(CNC(=O)[C@@H]2C[C@@H](O)CN2C(=O)[C@@H](NC(=O)C2(F)CC2)C(C)(C)C)c(O[C@H]2CC[C@H](C(=O)N3CC(Nc4nccc(Sc5cnc(N6CCC7(CC6)CO[C@@H](C)[C@H]7N)cn5)c4Cl)C3)CC2)c1 [Example 22, (2S,4R)—N-(2-(((1R,4S)-4-(3-((4-((5-((3S,4S)-4-amino-3-methyl-2-oxa-8-azaspiro[4.5]decan-8-yl)pyrazin-2-yl)thio)-3-chloropyridin-2-yl)amino)azetidine-1-carbonyl)cyclohexyl)oxy)-4-(4-methylthiazol-5-yl)benzyl)-1-((S)-2-(1-fluorocyclopropane-1-carboxamido)-3,3-dimethylbutanoyl)-4-hydroxypyrrolidine-2-carboxamide] | 95.7 | 97.1

Next, values leading:

SHP2% degradation (0.01 μM) [%] | SHP2% degradation (0.1 μM) [%] | SMILES
99.9 | 99.9 | Cc1cc(C(C(=O)N2C[C@H](O)C[C@H]2C(=O)NCc2ccc(-c3scnc3C)cc2OC2CCN(C(=O)C3CCN(c4nccc(Sc5cnc(N6CCC(C)(CN)CC6)cn5)c4Cl)CC3)CC2)C(C)C)on1 (stereo partly drawn) [Example 93, (2S,4R)—N-(2-((1-(1-(4-((5-(4-(aminomethyl)-4-methylpiperidin-1-yl)pyrazin-2-yl)thio)-3-chloropyridin-2-yl)piperidine-4-carbonyl)piperidin-4-yl)oxy)-4-(4-methylthiazol-5-yl)benzyl)-4-hydroxy-1-(3-methyl-2-(3-methylisoxazol-5-yl)butanoyl)pyrrolidine-2-carboxamide]
98.9 | 99.9 | Cc1cc(C(C(=O)N2C[C@H](O)C[C@H]2C(=O)NCc2ccc(-c3scnc3C)cc2OC2CCN(C(=O)C3CCN(c4nccc(Sc5cnc(N6CCC(C)(CN)CC6)c(CO)n5)c4Cl)CC3)CC2)C(C)C)on1 (stereo partly drawn) [Example 96, (2S,4R)—N-(2-((1-(1-(4-((5-(4-(aminomethyl)-4-methylpiperidin-1-yl)-6-(hydroxymethyl)pyrazin-2-yl)thio)-3-chloropyridin-2-yl)piperidine-4-carbonyl)piperidin-4-yl)oxy)-4-(4-methylthiazol-5-yl)benzyl)-4-hydroxy-1-(3-methyl-2-(3-methylisoxazol-5-yl)butanoyl)pyrrolidine-2-carboxamide]
95.0 | 99.7 | Cc1cc(C(C(=O)N2C[C@H](O)C[C@H]2C(=O)NCc2ccc(-c3scnc3C)cc2OC2CCN(C(=O)C3CCN(c4nccc(Sc5cnc(N6CCC(C)(N)CC6)c(CO)n5)c4Cl)CC3)CC2)C(C)C)on1 (stereo partly drawn) [Example 97, (2S,4R)—N-(2-((1-(1-(4-((5-(4-amino-4-methylpiperidin-1-yl)-6-(hydroxymethyl)pyrazin-2-yl)thio)-3-chloropyridin-2-yl)piperidine-4-carbonyl)piperidin-4-yl)oxy)-4-(4-methylthiazol-5-yl)benzyl)-4-hydroxy-1-(3-methyl-2-(3-methylisoxazol-5-yl)butanoyl)pyrrolidine-2-carboxamide]
−4.8 | 91.5 | Cc1cnn(C(C(=O)N2C[C@H](O)C[C@H]2C(=O)NCc2ccc(-c3scnc3C)cc2OC2CCN(C(=O)C3CCN(c4nccc(Sc5cnc(N6CCC(C)(CN)CC6)cn5)c4Cl)CC3)CC2)C(C)C)c1 (stereo partly drawn) [Example 99, (2S,4R)—N-(2-((1-(1-(4-((5-(4-(aminomethyl)-4-methylpiperidin-1-yl)pyrazin-2-yl)thio)-3-chloropyridin-2-yl)piperidine-4-carbonyl)piperidin-4-yl)oxy)-4-(4-methylthiazol-5-yl)benzyl)-4-hydroxy-1-(3-methyl-2-(4-methyl-1H-pyrazol-1-yl)butanoyl)pyrrolidine-2-carboxamide]
48.3 | 88.1 | Cc1cc(C(C(=O)N2C[C@H](O)C[C@H]2C(=O)NCc2ccc(-c3scnc3C)cc2O[C@H]2CC[C@H](C(=O)N3CC(Nc4cccc(Sc5cnc(N6CCC(C)(CN)CC6)cn5)c4Cl)C3)CC2)C(C)C)on1 (stereo partly drawn) [Example 114, (2S,4R)—N-(2-(((1R,4S)-4-(3-((3-((5-(4-(aminomethyl)-4-methylpiperidin-1-yl)pyrazin-2-yl)thio)-2-chlorophenyl)amino)azetidine-1-carbonyl)cyclohexyl)oxy)-4-(4-methylthiazol-5-yl)benzyl)-4-hydroxy-1-(3-methyl-2-(3-methylisoxazol-5-yl)butanoyl)pyrrolidine-2-carboxamide]
99.6 | 99.7 | Cc1cc(C(C(=O)N2C[C@H](O)C[C@H]2C(=O)NCc2ccc(-c3scnc3C)cc2OC2CCN(C(=O)C3CCN(c4nccc(Sc5cnc(N6CCC7(CC6)CO[C@@H](C)[C@H]7N)c(CO)n5)c4Cl)CC3)CC2)C(C)C)on1 (stereo partly drawn) [Example 98, (2S,4R)—N-(2-((1-(1-(4-((5-((3S,4S)-4-amino-3-methyl-2-oxa-8-azaspiro[4.5]decan-8-yl)-6-(hydroxymethyl)pyrazin-2-yl)thio)-3-chloropyridin-2-yl)piperidine-4-carbonyl)piperidin-4-yl)oxy)-4-(4-methylthiazol-5-yl)benzyl)-4-hydroxy-1-(3-methyl-2-(3-methylisoxazol-5-yl)butanoyl)pyrrolidine-2-carboxamide]
